Key:
[1] = system: CCKB receptor; assay: in vitro affinity measurement, CCKB receptor; assay type: binding
Method: (§1) This affinity is between 0.5 and 100 nM with a selectivity for the CCKA receptors over the CCKB receptors which may reach a factor of 10,000 for the compound of Example 1, for example.

[2] = system: CCKA receptors; assay: in vitro affinity measurement, CCKA receptors; assay type: binding
Method: These compounds have formed the subject of in vitro affinity measurement studies concerning the CCKA receptors.
as §1

[3] = system: biliary emptying; assay: in vivo biliary emptying model in fasted mice; conditions: Mus musculus, po, 1 h, administered orally one hour before the sacrifice, bile vesicle weight
Method: The compounds are administered orally one hour before the sacrifice. The bile vesicle is removed and then weighed and the results, expressed in mg/kg of body weight, reveal for the compound of Example 10, for example, an ED50 of 0.3 mg/kg.

COc1cc(OC)c(C2=NC(NC(=O)Nc3cccc(C)c3)C(=O)N(C)c3ccccc32)c(OC)c1 (stereo not shown) [Example 7, 1,3-dihydro-1-methyl-3-(3-methylphenylureido)-5-(2,4,6-trimethoxyphenyl)-1,4-benzodiazepin-2-one]
affinity for the CCKB receptor compared with that for the CCKA receptor [1]: identical to or greater than that obtained for the CCKA receptor

COc1cc(C)cc(OC)c1C1=NC(NC(=O)c2cc3ccccc3[nH]2)C(=O)N(C)c2ccccc21 (stereo not shown) [Example 1, N-[2,3-dihydro-5-(2,6-dimethoxy-4-methylphenyl)-1-methyl-2-oxo-1H-1,4-benzodiazepin-3-yl]-1H-2-indolecarboxamide]
selectivity for the CCKA receptors over the CCKB receptors (factor) [2]: 10,000

COc1cc(C)cc(OC)c1C1=NC(NC(=O)Nc2cccc(C)c2)C(=O)N(C)c2ccccc21 (stereo not shown) [Example 6, 1,3-dihydro-5-(2,6-dimethoxy-4-methylphenyl)-1-methyl-3-(3-methylphenylureido)-1,4-benzodiazepin-2-one]
affinity for the CCKB receptor compared with that for the CCKA receptor [1]: identical to or greater than that obtained for the CCKA receptor

COc1cc(C)cc(OC)c1C1=NC(NC(=O)c2cc3ccccc3[nH]2)C(=O)N(C)c2ccccc21 (single isomer, unassigned; (+)) [Example 10, (+)-N-[2,3-dihydro-5-(2,6-dimethoxy-4-methylphenyl)-1-methyl-2-oxo-1H-1,4-benzodiazepin-3-yl]-1H-indole-2-carboxamide]
ED50 [3]: 0.3 mg/kg

Reference: patent publication US5719143A, “Polysubstituted 3-acylamino-5-phenyl-1, 4-benzodiazepin-2-one derivatives, process for their preparation and the pharmaceutical compositions containing them” (Sanofi, priority 1994, dated 1998)
